In general, IC50 refers to the concentration needed to halve the response being measured. What is called Ki is the dissociation constant of the complex between target and ligand, obtained from inhibition or displacement. For orientation: kinact means the maximal first-order rate at which the target is inactivated.

Read-outs that look alike come from different tables or passages of the source.

Series [1] deals with T1, CYP2A13 (Homo sapiens, UniProt Q16696).
T1 construct: made in house
T1 sequence (Q16696 1-494): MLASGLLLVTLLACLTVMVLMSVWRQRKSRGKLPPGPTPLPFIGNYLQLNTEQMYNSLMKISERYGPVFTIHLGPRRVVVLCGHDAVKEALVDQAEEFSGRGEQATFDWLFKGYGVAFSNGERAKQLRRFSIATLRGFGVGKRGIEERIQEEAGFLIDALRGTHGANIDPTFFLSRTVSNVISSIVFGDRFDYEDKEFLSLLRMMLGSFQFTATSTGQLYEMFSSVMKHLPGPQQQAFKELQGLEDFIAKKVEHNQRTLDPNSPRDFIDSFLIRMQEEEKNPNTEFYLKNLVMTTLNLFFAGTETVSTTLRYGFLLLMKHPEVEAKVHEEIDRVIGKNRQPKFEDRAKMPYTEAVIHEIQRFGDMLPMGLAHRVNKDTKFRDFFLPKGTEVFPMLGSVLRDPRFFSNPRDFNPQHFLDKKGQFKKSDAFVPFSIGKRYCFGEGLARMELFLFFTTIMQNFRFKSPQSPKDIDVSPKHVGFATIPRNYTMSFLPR
In words: Inhibition of CYP2A13-mediated coumarin 7-hydroxylation, enzymatic reconstitution assay. The format is biochemical. As to conditions: for Ki: coumarin 0–40 µM. As for the experimental part: (§1) Inhibitory effect of plant extracts, fractions, subfractions and constituents was determined by inhibition assay on CYP2A6- and CYP2A13-mediated coumarin 7-hydroxylation. The recombinant human CYP2A6, CYP2A13 and rat NADPH-dependent cytochrome P450 oxidoreductase (CYPOR) proteins were expressed, purified, according to the methods previously described. […] Rate of 7-hydroxycoumarin product formation was measured on spectrofluorometer (Shimadzu, Kyoto, Japan) at λex = 355 nm, λem = 460 nm. Inhibition effects were determined by incubation with extracts, fractions or purified compounds with coumarin substrate in the reaction mixture and calculated as per cent relative inhibition compared with vehicle control reaction[20] and IC50 values were calculated using GraphPad Prism 5 (GraphPad Software Inc., La Jolla, CA).
(§2) MBI requires NADPH and time to generate reactive intermediate as inhibitor and ultimately inactivates the enzyme. MBI was evaluated by pre-incubation with each test inhibitor in the reaction at different time periods (0, 10, 20 and 30 min) in the presence of NADPH for time-dependent assay, as described. The apparent inactivation constants, KI and Kinact, were obtained from double reciprocal plots of kobs versus inhibitor concentrations by linear regression analysis on GraphPad Prism 5. Methoxsalen was used as a control mechanism-based inhibitor for time- and NADPH-dependent inhibition assays.

Series [2] addresses T2, CYP2A6 (Homo sapiens, UniProt P11509).
T2 sequence (P11509 1-494): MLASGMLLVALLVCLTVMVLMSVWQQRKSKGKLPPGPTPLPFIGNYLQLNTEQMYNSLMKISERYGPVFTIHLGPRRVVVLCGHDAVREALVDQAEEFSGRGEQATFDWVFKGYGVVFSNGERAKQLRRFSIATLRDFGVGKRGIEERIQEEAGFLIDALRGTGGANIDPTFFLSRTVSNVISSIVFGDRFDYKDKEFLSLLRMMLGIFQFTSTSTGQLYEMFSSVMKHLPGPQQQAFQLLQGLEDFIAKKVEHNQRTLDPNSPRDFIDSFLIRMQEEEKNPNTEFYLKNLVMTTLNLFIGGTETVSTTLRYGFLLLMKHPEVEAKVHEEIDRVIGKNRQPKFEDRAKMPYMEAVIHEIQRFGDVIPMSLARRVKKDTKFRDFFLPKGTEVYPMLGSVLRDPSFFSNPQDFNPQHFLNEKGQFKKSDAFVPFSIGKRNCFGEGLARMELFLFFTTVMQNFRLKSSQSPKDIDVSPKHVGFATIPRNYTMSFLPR
On the set-up: made in house. As to conditions: ref Prasopthum et al., 2015, cited from earlier work.

In series [3] the target is T2, CYP2A6. On the set-up: made in house; method as in PMID 25857233. The following applies: cited from earlier work.
For series [4], the target named is T1, CYP2A13. In words: Mechanism-based (time- and NADPH-dependent) inactivation of CYP2A13. The format is biochemical. The following applies: pre-incubation 0-30 min with NADPH; for KI (inactivation): read-out: CYP2A13 KI (inactivation constant). As for the experimental part:
as §2

The target of series [5] is T1, CYP2A13. In words: Effects of trapping agents and dialysis on inactivation of CYP2A13. The following applies: CYP2A13 inhibition reaction mixture, probe coumarin, compound 5 µM. The format is biochemical. The method, then: as §2
(§3) To explore whether inactivation of CYP2As by thiophenes 9–11 and of CYP2A13 by hirsutinolides 5-8 could be reversed, the removal of reversible inhibitory compounds by dialysis and addition of trapping agents (GSH, semicarbazide, catalase or potassium ferricyanide) in the inhibition reaction mixture were performed. […] Similarly, mechanism-based inactivation of both CYP2A6 and CYP2A13 by thiophenes 9–11 could not be reversed (Table 3).

Series [6] concerns the target T2, CYP2A6. In words: Inhibition of CYP2A6-mediated coumarin 7-hydroxylation, enzymatic reconstitution assay. The format is biochemical. Set-up: made in house. As to conditions: for Ki: coumarin 0–40 µM. The method, then: as §1, §2
Series [7] has as its target T2, CYP2A6. In words: Mechanism-based (time- and NADPH-dependent) inactivation of CYP2A6. On the set-up: made in house. The following applies: human, recombinant human CYP2A6, probe coumarin, pre-incubation 0-30 min with NADPH; for KI (inactivation): read-out: CYP2A6 KI (inactivation constant). The format is biochemical. As for the experimental part: as §2
Series [8] deals with T2, CYP2A6. In words: Effects of trapping agents and dialysis on inactivation of CYP2A6. The format is biochemical. Set-up: made in house. As to conditions: CYP2A6 inhibition reaction mixture, probe coumarin, compound 5 µM. As for the experimental part: as §2, §3
The target in series [9] is T1, CYP2A13. Set-up: method as in PMID 23903410, PMID 17672516. As to conditions: literature values; cited from earlier work.
The target of series [10] is T2, CYP2A6. As to conditions: read-out: inactivation kinetic values (KI) against CYP2A6; literature values; cited from earlier work.
[11] abbreviates: 10-min pre-incubation in the presence of NADPH, read-out: IC50 CYP2A13 Pre-incubation.
Setting [12] is: coincubation, coumarin 2 µM, read-out: IC50 CYP2A13 Coincubation.
Setting [13] is: 10-min pre-incubation in the presence of NADPH, read-out: IC50 CYP2A6 Pre-incubation.
[14] abbreviates: coincubation, coumarin 2 µM, read-out: IC50 CYP2A6 Coincubation.
Setting [15] is: read-out: Per cent remaining activity, 70 μM K3Fe(CN)6.
Where [16] appears, read: read-out: Per cent remaining activity, 2 mM GSH.
[17] abbreviates: read-out: Per cent remaining activity, 5 mM semicarbazide.
Where [18] appears, read: read-out: Per cent remaining activity, 2000 U catalase.
Where [19] appears, read: read-out: Per cent remaining activity, Dialysis (+) NADPH.
Setting [20] is: read-out: Per cent remaining activity, Dialysis (−) NADPH.
Setting [21] is: read-out: Per cent remaining activity, Pre-incubation.

Turning to `O=c1cc(-c2ccc(O)c(O)c2)oc2cc(O)cc(O)c12` [Luteolin 2, luteolin], the IC50 at CYP2A13 [1] (setting [11]) was 170 ± 10 nM; at CYP2A13 [1] (setting [12]), 180 ± 20 nM; at CYP2A6 [2] (setting [13]) it was 1260 ± 70 nM; on CYP2A6 [2] (setting [14]), 1380 ± 180 nM. Besides, the figures for the Ki at CYP2A13 [1] and at CYP2A6 [2] (coumarin 0–40 µM) were 70 ± 10 nM and 800 ± 60 nM, respectively. The “CYP2A6 Mode of inhibition” value on CYP2A6 [2] is listed as “Competitive^b”. In addition, at CYP2A6 [3], the “inhibition of CYP2A6-mediated nicotine metabolism” value is on record as “showed inhibition”.

For the molecule `CC#CC#Cc1ccc(C#CC(O)COC(C)=O)s1` (stereo not drawn) [Thiophene 9, 2-(penta-1,3-diyn-1-yl)-5–(4-acetoxy-3-hydroxybuta-1-yn-1-yl) thiophene], on CYP2A13 [1], the “CYP2A13 Mode of inhibition” value was “Mixed type”. For the same molecule, the IC50 came out at 2290 ± 340 nM on CYP2A13 [1] (setting [11]), 6180 ± 280 nM at CYP2A13 [1] (setting [12]), 2120 ± 190 nM at CYP2A6 [6] (setting [13]) and 6430 ± 1290 nM on CYP2A6 [6] (setting [14]). Also, the results for the inhibitory constant (Ki) on CYP2A13 [1] and on CYP2A6 [6] were 2960 ± 100 nM and 3230 ± 430 nM, respectively. Moreover, the results for the kinact on CYP2A13 [4] and at CYP2A6 [7] were 0.00133 s⁻¹ and 0.00167 s⁻¹, respectively. Besides, the KI (inactivation) was 970 ± 40 nM at CYP2A13 [4] and 880 ± 90 nM on CYP2A6 [7]. In addition, the activity at 5 µM is 24.9 ± 3.95% on CYP2A13 [5] (setting [15]); 23.2 ± 3.38% at CYP2A13 [5] (setting [16]); 23.2 ± 3.38% at CYP2A13 [5] (setting [17]); 22.1 ± 2.39% on CYP2A13 [5] (setting [18]); 20.9 ± 0.24% on CYP2A13 [5] (setting [19]); 85.3 ± 4.98% at CYP2A13 [5] (setting [20]). Besides, the activity at 5 µM on CYP2A13 [5] (setting [21]) came out at 29 ± 4.57%; on CYP2A6 [8] (setting [15]), 22.7 ± 1.58%; at CYP2A6 [8] (setting [16]) it was 21.6 ± 1.97%; on CYP2A6 [8] (setting [17]), 26.8 ± 2.39%; at CYP2A6 [8] (setting [18]) it was 26.9 ± 3.07%; at CYP2A6 [8] (setting [19]) it was 20.1 ± 5.21%. Moreover, the activity at 5 µM on CYP2A6 [8] (setting [20]) was 89.3 ± 7%; at CYP2A6 [8] (setting [21]) it was 30.1 ± 3.7%. Also, the “CYP2A6 Mode of inhibition” value at CYP2A6 [6] is reported as “Mixed type”.

For the molecule `CC#Cc1ccc(C#CC#CC(O)COC(C)=O)s1` (stereo not drawn) [Thiophene 10, 2-(prop-1-inyl)-5–(6-acetoxy-5-hydroxyhexa-1,3-diinyl) thiophene], on CYP2A13 [1], the “CYP2A13 Mode of inhibition” value was “Mixed type”. In addition, the IC50 on CYP2A13 [1] (setting [11]) turned out to be 1150 ± 880 nM; on CYP2A13 [1] (setting [12]), 2940 ± 10 nM; at CYP2A6 [6] (setting [13]), 2970 ± 10 nM; at CYP2A6 [6] (setting [14]), 4440 ± 140 nM. Moreover, the inhibition constant Ki is 1120 ± 90 nM at CYP2A13 [1] and 2070 ± 230 nM at CYP2A6 [6]. Further, the kinact was 0.001 s⁻¹ on CYP2A13 [4] and 0.00183 s⁻¹ at CYP2A6 [7]. The KI (inactivation) turned out to be 860 ± 90 nM at CYP2A13 [4] and 1010 ± 70 nM on CYP2A6 [7]. Moreover, the activity at 5 µM amounted to 26.9 ± 1.75% on CYP2A13 [5] (setting [15]); 27 ± 8.11% at CYP2A13 [5] (setting [16]); 27 ± 8.11% at CYP2A13 [5] (setting [17]); 22.2 ± 2.38% on CYP2A13 [5] (setting [18]); 21.4 ± 3.95% on CYP2A13 [5] (setting [19]); 93 ± 6.58% on CYP2A13 [5] (setting [20]). Besides, the activity at 5 µM on CYP2A13 [5] (setting [21]) amounted to 28.9 ± 1.25%; at CYP2A6 [8] (setting [15]) it was 19.2 ± 1.83%; on CYP2A6 [8] (setting [16]) it was 28.5 ± 1.72%; on CYP2A6 [8] (setting [17]), 21.1 ± 3.31%; at CYP2A6 [8] (setting [18]), 24.1 ± 4.49%; on CYP2A6 [8] (setting [19]), 23.7 ± 2.06%. Further, the activity at 5 µM came out at 87.5 ± 9.25% on CYP2A6 [8] (setting [20]) and 35.2 ± 3.22% at CYP2A6 [8] (setting [21]). Moreover, the “CYP2A6 Mode of inhibition” value at CYP2A6 [6] was “Mixed type”.

In the case of `S=C=NCCCCCCc1ccccc1` [phenylhexyl isothiocyanate], the “KI values against CYP2A13” value on CYP2A13 [9] is 1100 nM.

As for `S=C=NCCCc1ccccc1` [phenylpropyl isothiocyanate], at CYP2A13 [9], the “KI values against CYP2A13” value was 140 nM.

With `C/C=C(\C)CC/C=C(\C)C(=O)OCC(C)(C)CC1=C(O)C(=O)c2ccccc2C1=O` [rhinacanthin-C, reference compound], the “KI values against CYP2A13” value on CYP2A13 [9] is 1680 nM. In addition, the KI (inactivation) on CYP2A6 [10] was 970 nM.

For `CC(C)(C)N=C=S` [tert-butyl isothiocyanate], on CYP2A13 [9], the “KI values against CYP2A13” value was 4300 nM.

Take rhinacanthin-A [reference compound]: the “KI values against CYP2A13” value on CYP2A13 [9] is 420 nM. Moreover, the KI (inactivation) on CYP2A6 [10] is 690 nM.

In the case of rhinacanthin-B [reference compound], the “KI values against CYP2A13” value on CYP2A13 [9] is 160 nM. In addition, the KI (inactivation) at CYP2A6 [10] is 440 nM.

The values above are taken from paper PMC6009911, “Inhibition of human cytochromes P450 2A6 and 2A13 by flavonoids, acetylenic thiophenes and sesquiterpene lactones from Pluchea indica and Vernonia cinerea” (Journal of Enzyme Inhibition and Medicinal Chemistry, 2017).
